Results published in patent US20050065595A1, “Implants containing combretastatin a-4” (priority 2001, published 2005).

Columns and labels:
alkaline phosphatases = settings: by alkaline phosphatases; cited from earlier work
tumor cell lines = settings: cell culture studies, many different tumor cell lines; read-out: IC50, growth of tumor cell lines; cited from earlier work
tumors = settings: various animal models; cited from earlier work
[1] = test system: smooth muscle cells (SMCs); experiment: SMC proliferation inhibition (BrdU-ELISA or cell counting); type: cell-based; settings: for IC50: 96 h, SMCs, 2000 cells per well, BrdU-ELISA (paclitaxel: counting the number of cells), 24, 48, 72, 96 h
Protocol: SMCs were plated out in a 96-well plate in a density of 2000 cells per well. After 24 h, different concentrations of the active substance were adjusted (10^−2 to 10^−10M). The proliferation was measured after 24, 48, 72, and 96 h following the addition of the active substance using a BrdU-ELISA or, in the case of paclitaxel, by counting the number of cells.

neointimal development [2] = settings: animal experiments; cited from earlier work
neointimal development [3] = settings: swine; cited from earlier work
restenosis = settings: vascular wall injured by balloon angioplasty and stent placement; cited from earlier work
endothelial cells = experiment: Cell culture studies with endothelial cells after CA4 treatment; type: cell-based; settings: following a treatment with CA4

## COc1ccc(/C=C\c2cc(OC)c(OC)c(OC)c2)cc1OP(=O)([O-])[O-].[Na+].[Na+] [CA4P, disodium combretastatin-A4-3-O-phosphate]
Alkaline phosphatases
  transformation into CA4 in vivo: very rapidly transformed into CA4
Tumor cell lines
  IC50: 0.2 to 6 nM
tumors
  inhibition of tumor growth: markedly inhibit the growth of tumors

## CC(=O)O[C@H]1C(=O)[C@@]2(C)[C@H]([C@H](OC(=O)c3ccccc3)[C@]3(O)C[C@H](OC(=O)[C@H](O)[C@@H](NC(=O)c4ccccc4)c4ccccc4)C(C)=C1C3(C)C)[C@]1(OC(C)=O)CO[C@@H]1C[C@@H]2O [paclitaxel]
[1]
  IC50: ~10 nM
Neointimal development [2]
  effect on neointimal development: inhibit the neointimal development
Neointimal development [3]
  effect 6 months after implantation of coated stents: the effect had been neutralized

## CO[C@H]1C[C@@H]2CC[C@@H](C)[C@@](O)(O2)C(=O)C(=O)N2CCCC[C@H]2C(=O)O[C@H]([C@H](C)C[C@@H]2CC[C@@H](O)[C@H](OC)C2)CC(=O)[C@H](C)/C=C(\C)[C@@H](O)[C@@H](OC)C(=O)[C@H](C)C[C@H](C)/C=C/C=C/C=C/1C [rapamycin]
restenosis
  healing of the vascular wall: delayed healing of the vascular wall

## COc1ccc(/C=C\c2cc(OC)c(OC)c(OC)c2)cc1O [CA4, 2-methoxy-5-[(1Z)-2-(3,4,5-trimethoxyphenyl)ethenyl]phenol]
Endothelial cells
  recovery of endothelial cells versus SMCs after treatment: endothelial cells are able to recover more rapidly than the SMCs
[1]
  IC50: ~0.5 nM
[1]; CA4 vs paclitaxel
  effectiveness relative to paclitaxel (SMC proliferation): 10 to 50 times
